Data reported in patent publication US4400510A, “A-32256 Phenazine antibiotic” (Eli Lilly and Company, priority 1981, dated 1983).
In brackets after ≈: the same amount, converted by molar mass. Entries after “also recorded” stand apart in the source; their conditions may differ. Where two headings read alike, the source gives them in different places.

What was measured:
[1] = system: Erwinia amylovora; test: agar-dilution screening procedure, MIC; format: cell-based
Experimental: (§1) The agar-dilution procedure described by the International Collaborative Study (ICS) group was used to determine MIC values.
(§2) The results obtained from tests of antibiotic A-32256 in the agar-dilution screening procedure are recorded in Table 5, which follows.

[2] = system: Staphylococcus aureus; test: agar-dilution screening procedure, MIC; format: cell-based
Experimental: as §1, §2

[3] = system: Streptococcus faecalis; test: agar-dilution screening procedure, MIC; format: cell-based; conditions: Enterococcus faecalis, S. faecalis X66
Experimental: as §1, §2

[4] = system: Eubacterium aerofaciens; test: agar-dilution MIC vs. anaerobic bacteria; format: cell-based; conditions: strain 1235; Table 6
[5] = system: Peptococcus asaccharolyticus; test: agar-dilution MIC vs. anaerobic bacteria; format: cell-based; conditions: strain 1302; Table 6
[6] = system: Peptostreptococcus anaerobius; test: agar-dilution MIC vs. anaerobic bacteria; format: cell-based; conditions: strain 1428, Table 6
[7] = system: Bacteroides fragilis; test: agar-dilution MIC vs. anaerobic bacteria; format: cell-based; conditions: Table 6
[8] = system: Bacteroides vulgatis; test: agar-dilution MIC vs. anaerobic bacteria; format: cell-based; conditions: strain 1211; Table 6
[9] = system: Propionibacterium acnes; test: agar-dilution MIC against Propionibacterium acnes; format: cell-based; conditions: Cutibacterium acnes, Table 7
Source text: as §1
Antibiotic A-32256 is also active against a genus of anaerobic bacteria identified as Propionibacterium acnes, the MIC values being determined by the agar-dilution method, and set forth in Table 7, which follows.

[10] = improvement of ruminant feed efficiency; format: in vivo
Experimental: Suitable rates of administration are in the range of from about 10 to about 100 g/ton (from about 11 to about 111 ppm) of feed, or from about 0.25 mg to about 2.9 mg/kg of body weight of the ruminant. The preferred level of administration of A-32256 is from about 0.5 to about 1 mg/kg of body weight of ruminant, or about 50 g/ton of feed.

[11] = solubility; format: physicochemical
[12] = system: Staphylococcus aureus; test: disc-plate screening procedure, zone of inhibition
[13] = system: Streptococcus pyogenes; test: disc-plate screening procedure, zone of inhibition; conditions: read-out: Zone Diameter

## Cc1cccc(O)c1C(=O)OC(C)c1cccc2nc3c(C(=O)O)cccc3nc12 (stereo not shown) [Antibiotic A-32256, 6-[1-[(2-hydroxy-6-methylbenzoyl)oxy]-ethyl]-1-phenazinecarboxylic acid]
[1]
  MIC: 4 µg/mL (≈ 9.94 µM)
[2]; S. aureus 3055, benzylpenicillin-susceptible
  MIC: 1 µg/mL (≈ 2.49 µM)
[2]; S. aureus 3074, benzylpenicillin-resistant
  MIC: < 0.5 µg/mL
[3]
  MIC: 4 µg/mL (≈ 9.94 µM)
[4]
  MIC: 2 µg/mL (≈ 4.97 µM)
[5]
  MIC: 16 µg/mL (≈ 39.8 µM)
[6]
  MIC: ≤ 0.5 µg/mL
[7]; Bacteroides fragilis, strain 111, read-out: MIC
  MIC: 1 µg/mL (≈ 2.49 µM)
[7]; Bacteroides fragilis, strain 1936B, read-out: MIC
  MIC: 1 µg/mL (≈ 2.49 µM)
[7]; strain 1877
  MIC: 8 µg/mL (≈ 19.9 µM)
[8]
  MIC: 8 µg/mL (≈ 19.9 µM)
[9]; P. acnes 44
  MIC: ≤ 0.015 µg/mL
[9]; P. acnes 79
  MIC: ≤ 0.015 µg/mL
[9]; P. acnes 101
  MIC: ≤ 0.015 µg/mL
[9]; P. acnes 103
  MIC: ≤ 0.015 µg/mL
[9]; P. acnes 104
  MIC: ≤ 0.015 µg/mL
[9]; P. acnes 105
  MIC: 0.03 µg/mL (≈ 0.0746 µM)
[9]; P. acnes 106
  MIC: 0.06 µg/mL (≈ 0.149 µM)
[9]; P. acnes 107
  MIC: ≤ 0.015 µg/mL
[9]; P. acnes 108
  MIC: 0.03 µg/mL (≈ 0.0746 µM)
[9]; P. acnes 5170
  MIC: ≤ 0.015 µg/mL
[9]; P. acnes 5176
  MIC: ≤ 0.015 µg/mL
[9]; P. acnes 5187
  MIC: ≤ 0.015 µg/mL
[9]; P. acnes 5191
  MIC: 0.06 µg/mL (≈ 0.149 µM)
[9]; P. acnes 5197
  MIC: ≤ 0.015 µg/mL
[9]; P. acnes 5226
  MIC: ≤ 0.015 µg/mL
[9]; P. acnes 5227
  MIC: ≤ 0.015 µg/mL
[9]; P. acnes 5228
  MIC: ≤ 0.015 µg/mL
[9]; P. acnes 5229
  MIC: 0.03 µg/mL (≈ 0.0746 µM)
[9]; P. acnes 5246
  MIC: ≤ 0.015 µg/mL
[10]
  improvement of ruminant feed efficiency: has shown utility for the improvement of ruminant feed efficiency
[11]; acetone
  solubility: moderately soluble
[11]; alkaline aqueous solutions
  solubility: soluble
[11]; chloroform
  solubility: easily soluble
[11]; cyclohexane
  solubility: sparingly soluble
[11]; dimethyl sulfoxide
  solubility: moderately soluble
[11]; dioxane
  solubility: moderately soluble
[11]; ethanol
  solubility: sparingly soluble
[11]; ethyl acetate
  solubility: moderately soluble
[11]; hexane
  solubility: sparingly soluble
[11]; methanol
  solubility: sparingly soluble
[11]; pyridine
  solubility: easily soluble
[11]; tetrahydrofuran
  solubility: easily soluble
[11]; water
  solubility: not water soluble; also recorded: insoluble
[12]; read-out: Zone Diameter, S. aureus 3055, benzylpenicillin-susceptible, 30 mcg/disc
  zone of inhibition at 30 µg/disc: 23 mm
[12]; read-out: Zone Diameter, S. aureus 3055, benzylpenicillin-susceptible, 300 mcg/disc
  zone of inhibition at 300 µg/disc: 26.2 mm
[12]; read-out: Zone Diameter, S. aureus 3074, benzylpenicillin-resistant, 30 mcg/disc
  zone of inhibition at 30 µg/disc: 10 mm
[12]; read-out: Zone Diameter, S. aureus 3074, benzylpenicillin-resistant, 300 mcg/disc
  zone of inhibition at 300 µg/disc: 12.2 mm
[12]; read-out: Zone Diameter, S. aureus 3130, methicillin-resistant, 30 mcg/disc
  zone of inhibition at 30 µg/disc: 25.8 mm
[12]; read-out: Zone Diameter, S. aureus 3130, methicillin-resistant, 300 mcg/disc
  zone of inhibition at 300 µg/disc: 30 mm
[13]
  zone of inhibition at 30 µg/disc: 11 mm
  zone of inhibition at 300 µg/disc: 13 mm
